Data reported in article PMC8878452, “A Tale of Toxin Promiscuity: The Versatile Pharmacological Effects of Hcr 1b-2 Sea Anemone Peptide on Voltage-Gated Ion Channels” (Marine Drugs, 2022).
“Also recorded” adds a separate entry of the source. Bridges are numbered along the chain shown (N, C = ends). Where no end group is shown, it is not given here.

Experiments:
[1] = system: hKv2.1; experiment: TEVC, Kv2.1 in Xenopus oocytes; format: cell-based, human
Excerpt: (§1) For the expression of Kv channels (rKv1.1, rKv1.2, rKv1.3, rKv1.4, rK1.5, rKv1.6, hKv2.1, hKv3.1, rKv4.2, hKv7.1, hKv7.2/7.3, hKv7.4, KQT1 (from the roundworm Caenorhabditis elegans), hKv10.1 (hEAG1), hKv11.1 (hERG1), and Shaker, from Drosophila melanogaster), Nav channels (rNav1.1, rNav1.2, rNav1.3, rNav1.4, hNav1.5, mNav1.6, hNav1.7, hNav1.8, and BgNav (from the cockroach Blattella germanica), as well as the hβ1 and rβ1 subunits, and Cav channels (rCav3.1, hCav3.2, and rCav3.3) in Xenopus oocytes, the linearized plasmids were transcribed using the T7 or SP6 mMESSAGEmMACHINE transcription kit (Ambion, Austin, TX, USA). Mature female animals were purchased from Nasco (Fort Atkinson, WI, USA) and were housed in the Aquatic Facility (KU Leuven) in compliance with the regulations of the European Union (EU) concerning the welfare of laboratory animals as declared in Directive 2010/63/EU. The use of X. laevis oocytes was approved by the Animal Ethics Committee of the KU Leuven, with the license number P186/2019.
(§2) Stage V–VI oocytes were collected from anesthetized female X. laevis frog as previously described, with the frogs anesthetized by placement in a 0.1% tricaine solution (amino benzoic acid ethyl ester; Merck, Kenilworth, NJ, USA). Oocyte microinjection was performed using a microinjector (Drummond Scientifc®, Broomall, PA, USA), with a programmed cRNA injection volume of 4–50 nL, depending on channel subtype. The oocytes were incubated in ND96 solution (96 mM NaCl; 2 mM KCl; 1.8 mM CaCl2; 2 mM MgCl2, and 5 mM HEPES, pH 7.4), supplemented with 50 mg/L of gentamicin sulfate.
(§3) Electrophysiological measurements were performed at room temperature (18–22 °C) using the two-electrode voltage-clamp (TEVC) technique. Data were obtained using a GeneClamp 500 amplifier (Axon Instruments®, Burlingame, CA, USA) and Clampex9 software (Axon Instruments®, USA) was responsible for data acquisition and storage. Glass micropipettes were produced using glass capillaries (borosilicate WPI 1B120-6) and drawn in a WPI (World Precision Instruments®, Sarasota, FL, USA) manual stretcher. The bath and perfusion solutions were either the previously described ND96 (Nav and Kv channels) or calcium-free ND96 supplemented with 10 mM BaCl2 (Cav channels).
(§4) Whole-cell currents of oocytes were recorded 1 to 3 days after RNA injection. The current and voltage electrodes were filled with 3 M KCl, and their resistance was adjusted from 1.0 to 2.5 MΩ. Currents were sampled at 20 kHz (Nav channels) and 10 kHz (Kv and Cav channels) and filtered using a four-pole Bessel low-pass Bessel filter at 1 kHz for sodium and […] for potassium and calcium, except for the hERG ion channel in which the currents were filtered at 1 kHz. Leak subtraction was performed using a P/4 protocol. Kv1.x currents were evoked by 500 ms depolarizations to 0 mV, followed by a 500 ms pulse to −50 mV from a holding potential of −90 mV. Kv2.1, Kv3.1, Kv4.2, Kv7.x, and KQT1 currents were elicited by 700 ms pulses to +20 mV from a holding potential of −90 mV. Current traces of the hERG1 channel were elicited by applying a +40 mV prepulse for 2 s, followed by a step of −120 mV for 2 s. […] The current–voltage relationships were determined by 50 ms step depolarizations between −90 and +65 mV using 5 or 10 mV increments. All electrophysiological data were analyzed following the procedures described by Peigneur et al., 2012 [20].
(§5) All values were expressed as means ± SEM. […]

[2] = system: rNav1.2; experiment: TEVC, Nav1.2 in Xenopus oocytes; format: cell-based, rat
Excerpt: as §1, §2, §3
Whole-cell currents of oocytes were recorded 1 to 3 days after RNA injection. The current and voltage electrodes were filled with 3 M KCl, and their resistance was adjusted from 1.0 to 2.5 MΩ. Currents were sampled at 20 kHz (Nav channels) and 10 kHz (Kv and Cav channels) and filtered using a four-pole Bessel low-pass Bessel filter at 1 kHz for sodium and […] for potassium and calcium, except for the hERG ion channel in which the currents were filtered at 1 kHz. Leak subtraction was performed using a P/4 protocol. Kv1.x currents were evoked by 500 ms depolarizations to 0 mV, followed by a 500 ms pulse to −50 mV from a holding potential of −90 mV. Kv2.1, Kv3.1, Kv4.2, Kv7.x, and KQT1 currents were elicited by 700 ms pulses to +20 mV from a holding potential of −90 mV. Current traces of the hERG1 channel were elicited by applying a +40 mV prepulse for 2 s, followed by a step of −120 mV for 2 s. Current traces of hEAG1 were elicited by a 2 s depolarization to 0 mV from a holding potential of −90 mV. Sodium current traces were evoked by a 100 ms depolarization to 0 mV. For Cav channels, current traces were elicited by 700 ms depolarizations to −20 mV from a holding potential of −90 mV. The current–voltage relationships were determined by 50 ms step depolarizations between −90 and +65 mV using 5 or 10 mV increments. All electrophysiological data were analyzed following the procedures described by Peigneur et al., 2012 [20].
All values were expressed as means ± SEM. Differences in ionic currents between the control and toxin conditions were compared by a one-way ANOVA, followed by Dunnett’s multiple comparisons test. Differences were considered statistically significant when […].

[3] = system: Kv1.5; experiment: TEVC, Kv1.5 in Xenopus oocytes; format: cell-based, rat; details: 1 µM, n ≥ 3
Excerpt: as §1, with “P186/2019. […]” for “P186/2019.”
(§6) Whole-cell currents of oocytes were recorded 1 to 3 days after RNA injection. […] The current–voltage relationships were determined by 50 ms step depolarizations between −90 and +65 mV using 5 or 10 mV increments. All electrophysiological data were analyzed following the procedures described by Peigneur et al., 2012 [20].
as §5

[4] = system: hKv3.1; experiment: TEVC, Kv3.1 in Xenopus oocytes; format: cell-based, human; details: 1 µM, ND96 pH 7.4, 18–22 °C, n ≥ 3
Excerpt: as §1, with “P186/2019. […]” for “P186/2019.”
as §6, §5

[5] = system: rCav3.1; experiment: TEVC, Cav3.1 in Xenopus oocytes; format: cell-based, rat
Excerpt: as §1, §2, §3
Whole-cell currents of oocytes were recorded 1 to 3 days after RNA injection. The current and voltage electrodes were filled with 3 M KCl, and their resistance was adjusted from 1.0 to 2.5 MΩ. […] The current–voltage relationships were determined by 50 ms step depolarizations between −90 and +65 mV using 5 or 10 mV increments. All electrophysiological data were analyzed following the procedures described by Peigneur et al., 2012 [20].
as §5

[6] = system: KQT1; experiment: TEVC, KQT1 in Xenopus oocytes; format: cell-based, Caenorhabditis elegans
Excerpt: as §1, §2, §3, §4, §5

[7] = system: rKv1.4; experiment: TEVC, Kv1.4 in Xenopus oocytes; format: cell-based, rat
Excerpt: as §1, §2, §3, §4, §5

[8] = system: rNav1.1; experiment: TEVC, Nav1.1 in Xenopus oocytes; format: cell-based, rat
Excerpt: as §1, §2, §3, §4, §5

[9] = system: hCav3.2; experiment: TEVC, Cav3.2 in Xenopus oocytes; format: cell-based, human
Excerpt: as §1, §2, §3, §4, §5

[10] = system: rNav1.3; experiment: TEVC, Nav1.3 in Xenopus oocytes; format: cell-based, rat
Excerpt: as §1, §2, §3, §4, §5

[11] = system: rKv4.2; experiment: TEVC, Kv4.2 in Xenopus oocytes; format: cell-based, rat; details: 1 µM, ND96 pH 7.4, 18–22 °C, n ≥ 3
Excerpt: as §1, with “P186/2019. […]” for “P186/2019.”
as §6, §5

[12] = 1 µM, 700 ms pulse to +20 mV from −90 mV, mean ± SEM, n ≥ 3
[13] = 1 µM, TEVC, ND96 pH 7.4, 18–22 °C, n ≥ 3
[14] = 1 µM, 100 ms depolarization to 0 mV, mean ± SEM, n ≥ 3
[15] = 1 µM vs control (ND96 Ca2+ free)

GTPCKCHGYIGVYWFMLAGCPNGYGYNLSCPYFLGICCVKK (disulfide 4-37, 6-30, 20-38 (inferred)) [Hcr 1b-2]
gating-modifier effect (voltage-current relationship), Kv2.1 ([1]; 1 µM): non-significant gating-modifier effect | Shift in Vhalf activation, Kv2.1 ([1]; 1 µM vs control (ND96)): 2.6 mV | activity (inhibition of current), Kv2.1 [1, 12]: 32.6 ± 3.4% | effect on potassium current, Kv2.1 [1, 13]: inhibition | Vhalf activation, Kv2.1 ([1]; 1 µM, control (ND96) 5.3 ± 0.3, mean ± SEM): 8.0 ± 0.2 mV | effect on activation or inactivation, Nav1.2 ([2]; 1 µM): no significant effect | Shift in Vhalf activation, Nav1.2 ([2]; 1 µM vs control (ND96)): 3.7 mV | Shift in Vhalf inactivation, Nav1.2 ([2]; 1 µM vs control (ND96)): −1.1 mV | reduction of peak amplitude (INa), Nav1.2 [2, 14]: 52.8 ± 7.9% | Vhalf activation, Nav1.2 ([2]; 1 µM, control (ND96) −19.2 ± 0.1, mean ± SEM, n ≥ 3): −15.5 ± 0.2 mV | Vhalf inactivation, Nav1.2 ([2]; 1 µM, control (ND96) −33.6 ± 0.4, mean ± SEM, n ≥ 3): −34.7 ± 0.6 mV | activity (inhibition of current), Kv1.5 ([3]; 500 ms depolarization to 0 mV from −90 mV, mean ± SEM): 41.9 ± 4.7% | effect on potassium current, Kv1.5 ([3]; TEVC, ND96 pH 7.4, 18–22 °C): inhibition | effect on potassium current, Kv3.1 [4]: not active | Shift in Vhalf activation, Cav3.1 [5, 15]: −0.2 mV | Shift in Vhalf inactivation, Cav3.1 [5, 15]: −2.3 mV | Vhalf activation, Cav3.1 ([5]; 1 µM, control (ND96 Ca2+ free) −41.0 ± 0.1, mean ± SEM, n ≥ 3): −41.2 ± 0.1 mV | Vhalf inactivation, Cav3.1 ([5]; 1 µM, control (ND96 Ca2+ free) −58.4 ± 0.2, mean ± SEM, n ≥ 3): −60.7 ± 0.2 mV | gating-modifier effect (voltage-current relationship), KQT1 ([6]; 1 µM): stronger shift | Shift in Vhalf activation, KQT1 ([6]; 1 µM vs control (ND96)): 7.9 mV | activity (inhibition of current), KQT1 [6, 12]: 33.4 ± 3.3% | effect on potassium current, KQT1 [6, 13]: inhibition | Vhalf activation, KQT1 ([6]; 1 µM, control (ND96) 14.6 ± 0.4, mean ± SEM): 22.4 ± 0.5 mV | gating-modifier effect (voltage-current relationship), Kv1.4 ([7]; 1 µM): non-significant gating-modifier effect; also recorded: negligible shift in the midpoint of activation | Shift in Vhalf activation, Kv1.4 ([7]; 1 µM vs control (ND96)): 2.5 mV | activity (inhibition of current), Kv1.4 ([7]; 1 µM, 500 ms depolarization to 0 mV from −90 mV, mean ± SEM, n ≥ 3): 46.9 ± 4.3% | effect on potassium current, Kv1.4 [7, 13]: inhibition | Vhalf activation, Kv1.4 ([7]; 1 µM, control (ND96) 7.5 ± 0.7, mean ± SEM): 10.0 ± 0.5 mV | Shift in Vhalf activation, Nav1.1 ([8]; 1 µM vs control (ND96)): 0.1 mV | Shift in Vhalf inactivation, Nav1.1 ([8]; 1 µM vs control (ND96)): −5.8 mV | reduction of peak amplitude (INa) / inhibition, Nav1.1 [8, 14]: 31.2 ± 3.8% | Vhalf activation, Nav1.1 ([8]; 1 µM, control (ND96) −24.6 ± 0.1, mean ± SEM, n ≥ 3): −24.5 ± 0.1 mV | Vhalf inactivation, Nav1.1 ([8]; 1 µM, control (ND96) −37.2 ± 0.2, mean ± SEM, n ≥ 3): −43 ± 0.4 mV | Shift in Vhalf activation, Cav3.2 [9, 15]: −0.4 mV | Shift in Vhalf inactivation, Cav3.2 [9, 15]: 0.5 mV | inhibition, Cav3.2 ([9]; 1 µM, calcium-free ND96 + 10 mM BaCl2, 700 ms depolarization to −20 mV from −90 mV, mean ± SEM, n ≥ 3): 35.1 ± 0.7% | Vhalf activation, Cav3.2 ([9]; 1 µM, control (ND96 Ca2+ free) −31.9 ± 0.1, mean ± SEM, n ≥ 3): −32.3 ± 0.2 mV | Vhalf inactivation, Cav3.2 ([9]; 1 µM, control (ND96 Ca2+ free) −46.6 ± 0.8, mean ± SEM, n ≥ 3): −46.1 ± 0.6 mV | Shift in Vhalf activation, Nav1.3 ([10]; 1 µM vs control (ND96)): 5.3 mV | Shift in Vhalf inactivation, Nav1.3 ([10]; 1 µM vs control (ND96)): −3.4 mV | inhibition of peak amplitude (INa), Nav1.3 [10, 14]: 11.2 ± 1.8% | Vhalf activation, Nav1.3 ([10]; 1 µM, control (ND96) −21.2 ± 0.1, mean ± SEM, n ≥ 3): −15.9 ± 0.1 mV | Vhalf inactivation, Nav1.3 ([10]; 1 µM, control (ND96) −29.9 ± 0.1, mean ± SEM, n ≥ 3): −33.3 ± 0.1 mV | effect on potassium current, Kv4.2 [11]: inhibition
